Patent publication US11053204B2, “Pyrimidinyloxy benzene derivatives as herbicides” (FMC Corporation, priority 2015, dated 2021)

What was measured:
Assay type in all cases: in vivo
[1] = test system: Italian ryegrass (Lolium multiflorum); assay: Test A preemergence, visual injury rating
Summary of the method: (§1)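 Visual 0–100 rating (100 = complete control) taken about 10 d post-treatment relative to untreated checks. Preemergence: directed soil spray on sown loam/sand pots. Postemergence: seedlings 2–10 cm, 1–2 leaf. Non-phytotoxic solvent formulation with surfactant.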

[2] = test system: barnyardgrass (Echinochloa crus-galli); assay: Test A preemergence, visual injury rating
Summary of the method: as §1

[3] = test system: giant foxtail (Setaria faberii); assay: Test A preemergence, visual injury rating
Summary of the method: as §1

kochia (Kochia scoparia) [4] = assay: Test A preemergence, visual injury rating
Summary of the method: as §1

[5] = test system: pigweed (Amaranthus retroflexus); assay: Test A preemergence, visual injury rating
Summary of the method: as §1

[6] = test system: ragweed (common ragweed, Ambrosia elatior); assay: Test A preemergence, visual injury rating
Summary of the method: as §1

[7] = test system: Italian ryegrass (Lolium multiflorum); assay: Test A postemergence, visual injury rating
Summary of the method: as §1

[8] = test system: barnyardgrass (Echinochloa crus-galli); assay: Test A postemergence, visual injury rating
Summary of the method: as §1

[9] = test system: blackgrass (Alopecurus myosuroides); assay: Test A postemergence, visual injury rating
Summary of the method: as §1

corn (Zea mays) = assay: Test A postemergence, visual injury rating
Summary of the method: as §1

[10] = test system: galium (catchweed bedstraw, Galium aparine); assay: Test A postemergence, visual injury rating
Summary of the method: as §1

[11] = test system: giant foxtail (Setaria faberii); assay: Test A postemergence, visual injury rating
Summary of the method: as §1

kochia (Kochia scoparia) [12] = assay: Test A postemergence, visual injury rating
Summary of the method: as §1

[13] = test system: pigweed (Amaranthus retroflexus); assay: Test A postemergence, visual injury rating
Summary of the method: as §1

[14] = test system: ragweed (common ragweed, Ambrosia elatior); assay: Test A postemergence, visual injury rating
Summary of the method: as §1

[15] = test system: wheat (Triticum aestivum); assay: Test A postemergence, visual injury rating
Summary of the method: as §1

[16] = test system: barnyardgrass (Echinochloa crus-galli); assay: Test B flooded paddy test, plant response rating; details: 250 g ai/ha; Flood; scale of 0 to 100 where 0 is no effect and 100 is complete control; 13 to 15 days
Summary of the method: (§2)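 Greenhouse pots flooded to 3 cm above soil at time of treatment received compound via the water, which stayed at that level.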

[17] = test system: ducksalad (Heteranthera limosa); assay: Test B flooded paddy test, plant response rating; details: 250 g ai/ha; Flood; scale of 0 to 100 where 0 is no effect and 100 is complete control; 13 to 15 days
Summary of the method: as §2

rice (Oryza sativa) = assay: Test B flooded paddy test, plant response rating; details: 250 g ai/ha; Flood; scale of 0 to 100 where 0 is no effect and 100 is complete control; 13 to 15 days
Summary of the method: as §2

[18] = test system: sedge, umbrella (small-flower umbrella sedge, Cyperus difformis); assay: Test B flooded paddy test, plant response rating; details: 250 g ai/ha; Flood; scale of 0 to 100 where 0 is no effect and 100 is complete control; 13 to 15 days
Summary of the method: as §2

[19] = 31 g ai/ha, 0 to 100 scale, 0 no effect, 100 complete control
[20] = 125 g ai/ha, 0 to 100 scale (0 no effect, 100 complete control)
[21] = 31 g ai/ha, 0 to 100 scale (0 no effect, 100 complete control)
[22] = 125 g ai/ha, 0 to 100 scale, 0 is no effect, 100 is complete control, approximately 10 days

| SMILES | Plant response rating, Ryegrass, Italian [1, 19] | Plant response rating, Ryegrass, Italian [1, 20] | Plant response rating, Barnyardgrass [2, 19] | Plant response rating, Barnyardgrass [2, 20] | Plant response rating, Foxtail, Giant [3, 19] | Plant response rating, Foxtail, Giant [3, 20] | Plant response rating, Kochia (kochia (Kochia scoparia) [4]; [19]) | Plant response rating, Kochia (kochia (Kochia scoparia) [4]; [20]) | Plant response rating, Pigweed [5, 19] | Plant response rating, Pigweed [5, 20] | Plant response rating, Ragweed [6, 19] | Plant response rating, Ragweed [6, 20] | Ryegrass, Italian plant response rating [7, 21] | Ryegrass, Italian plant response rating [7, 22] | Barnyardgrass plant response rating [8, 21] | Barnyardgrass plant response rating [8, 22] | Blackgrass plant response rating [9, 21] | Blackgrass plant response rating [9, 22] | Corn plant response rating (corn (Zea mays); [21]) | Corn plant response rating (corn (Zea mays); [22]) | also measured |
| --- | --- | --- | --- | --- | --- | --- | --- | --- | --- | --- | --- | --- | --- | --- | --- | --- | --- | --- | --- | --- | --- |
| N#CC(CCCCC(F)(F)F)c1ccccc1Oc1ncc(Cl)cn1 (stereo not drawn) [Compound 145] | 10 | 50 | 40 | 80 | 90 | 100 | 0 | 40 | 100 | 100 | 0 | 30 | 10 | 40 | 30 | 80 | 40 | 60 | 30 | 50 | Galium plant response rating [10, 21]: 40; Galium plant response rating [10, 22]: 80; Foxtail, Giant plant response rating [11, 21]: 50; Foxtail, Giant plant response rating [11, 22]: 70; Kochia plant response rating (kochia (Kochia scoparia) [12]; [21]): 70; Kochia plant response rating (kochia (Kochia scoparia) [12]; [22]): 90; Pigweed plant response rating [13, 21]: 90; Pigweed plant response rating [13, 22]: 100; Ragweed plant response rating [14, 21]: 10; Ragweed plant response rating [14, 22]: 20; Wheat plant response rating [15, 21]: 10; Wheat plant response rating [15, 22]: 30; Plant response rating, Barnyardgrass [16]: 50; Plant response rating, Ducksalad [17]: 100; Plant response rating, Rice (rice (Oryza sativa)): 30; Plant response rating, Sedge, Umbrella [18]: 100 |
| N#Cc1cccc(Oc2ncc(Cl)cn2)c1NCCCC(F)(F)F [Compound 146] | 0 | 50 | 20 | 100 | 80 | 100 | 60 | 80 | 60 | 100 | 0 | 0 | 0 | 70 | 30 | 90 | 30 | 90 | 20 | 80 | Galium plant response rating [10, 21]: 70; Galium plant response rating [10, 22]: 100; Foxtail, Giant plant response rating [11, 21]: 30; Foxtail, Giant plant response rating [11, 22]: 90; Kochia plant response rating (kochia (Kochia scoparia) [12]; [21]): 70; Kochia plant response rating (kochia (Kochia scoparia) [12]; [22]): 100; Pigweed plant response rating [13, 21]: 60; Pigweed plant response rating [13, 22]: 70; Ragweed plant response rating [14, 21]: 0; Ragweed plant response rating [14, 22]: 30; Wheat plant response rating [15, 21]: 20; Wheat plant response rating [15, 22]: 20; Plant response rating, Barnyardgrass [16]: 40; Plant response rating, Ducksalad [17]: 100; Plant response rating, Rice (rice (Oryza sativa)): 35; Plant response rating, Sedge, Umbrella [18]: 85 |
